Data on three compounds can be found in ChEMBL document CHEMBL4219040, “Modulation of Glycine-Mediated Spinal Neurotransmission for the Treatment of Chronic Pain” (J Med Chem, 2018).

Assay [1] deals with T1, Glycine receptor subunit alpha-3 (Homo sapiens) (UniProt O75311).
T1 sequence (whole entry): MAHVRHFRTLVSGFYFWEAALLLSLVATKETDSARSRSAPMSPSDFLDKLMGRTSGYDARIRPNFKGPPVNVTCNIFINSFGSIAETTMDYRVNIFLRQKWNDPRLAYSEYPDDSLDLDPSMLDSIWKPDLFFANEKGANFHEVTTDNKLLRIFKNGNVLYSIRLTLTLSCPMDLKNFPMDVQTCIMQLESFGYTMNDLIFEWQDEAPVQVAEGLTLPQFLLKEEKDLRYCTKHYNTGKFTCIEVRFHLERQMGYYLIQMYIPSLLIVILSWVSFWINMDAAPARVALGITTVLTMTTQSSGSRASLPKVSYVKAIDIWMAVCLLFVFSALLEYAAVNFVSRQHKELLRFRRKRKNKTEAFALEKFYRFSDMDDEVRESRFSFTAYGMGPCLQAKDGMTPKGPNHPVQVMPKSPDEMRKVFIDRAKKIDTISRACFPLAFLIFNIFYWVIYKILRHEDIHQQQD
Nature of the assay: Positive allosteric modulation of human GlyRalpha3 expressed in HEK293 cells assessed as potentiation of glycine-induced current flux at 100 uM by electrophysiology method relative to control. Type of assay: cell-based.

Assay [2] concerns the target T2, Glycine receptor subunit alpha-3 (Homo sapiens, UniProt O75311).
T2 sequence (O75311 whole entry): T1 sequence (whole entry)
The experiment in a line: Positive allosteric modulation of human GlyRalpha3 expressed in HEK293 cells assessed as potentiation of glycine-induced current flux by electrophysiology method. It counts as cell-based.

Assay [3] has as its target T3, Glycine receptor subunit alpha-1 (Homo sapiens) (UniProt P23415).
T3 sequence (whole entry): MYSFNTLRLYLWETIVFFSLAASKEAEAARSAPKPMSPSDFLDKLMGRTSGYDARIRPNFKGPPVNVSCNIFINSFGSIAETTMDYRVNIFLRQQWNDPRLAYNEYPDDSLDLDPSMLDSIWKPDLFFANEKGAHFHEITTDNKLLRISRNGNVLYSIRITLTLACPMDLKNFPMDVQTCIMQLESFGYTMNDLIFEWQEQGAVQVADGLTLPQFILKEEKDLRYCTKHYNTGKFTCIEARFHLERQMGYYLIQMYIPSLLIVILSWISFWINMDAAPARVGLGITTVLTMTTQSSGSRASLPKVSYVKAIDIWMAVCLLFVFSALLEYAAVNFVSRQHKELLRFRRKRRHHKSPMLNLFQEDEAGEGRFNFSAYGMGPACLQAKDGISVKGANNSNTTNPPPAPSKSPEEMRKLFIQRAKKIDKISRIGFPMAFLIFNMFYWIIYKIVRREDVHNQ
Nature of the assay: Positive allosteric modulation of human GlyRalpha1 expressed in HEK293 cells assessed as potentiation of glycine-induced current flux at 100 uM by electrophysiology method relative to control. It counts as cell-based.

Assay [4] addresses T4, Glycine receptor alpha-3/beta (Homo sapiens, UniProt O75311+P48167). The experiment in a line: Positive allosteric modulation of human GlyRalpha3beta expressed in CHO cells assessed as potentiation of EC20 glycine-induced response at 5.9 uM by fluorescence based HTS assay. Type of assay: cell-based.
Assay [5] has as its target T4, Glycine receptor alpha-3/beta. Nature of the assay: Positive allosteric modulation of human GlyRalpha3beta expressed in CHO cells assessed as potentiation of EC20 glycine-induced ion flux at 10 uM by HT assay. Type of assay: cell-based.
Assay [6] shares this target. Nature of the assay: Positive allosteric modulation of human GlyRalpha3beta expressed in CHO cells assessed as potentiation of EC5 to EC10 glycine-induced response at 10 uM by manual patch clamp assay. Type of assay: cell-based.
For assay [7], the target named is T5, Glycine receptor subunit alpha-3 (Mus musculus) (UniProt Q91XP5).
T5 sequence (whole entry): T1 sequence (whole entry) with D32N, M372T, M398V, T399V, P406A
The experiment in a line: Allosteric modulation of GlyRalpha3 in VGAT::ChR2 BAC transgenic mouse lumbar spinal cord slices assessed as increase in decay time constants of light-evoked Gly-IPSC at 100 uM by Whole cell patch clamp method. (In general: In patch-clamp work, channel activity is measured electrically.)

The target in assay [8] is T5, Glycine receptor subunit alpha-3 (Mus musculus). Nature of the assay: Allosteric modulation of zymosan-A treated GlyRalpha3 in VGAT::ChR2 BAC transgenic mouse lumbar spinal cord slices assessed as increase in decay time constants of light-evoked Gly-IPSC at 100 uM by Whole cell patch clamp method.
The species named for assay [9] is Mus musculus. The experiment in a line: Analgesic activity in zymosan-A induced inflammation mouse model assessed as reduction in mechanical hyperalgesia. It counts as functional. More on the design: scale not given: the % may be the effect or the level left.
For assay [10], the species on record is Mus musculus. The experiment in a line: Analgesic activity in zymosan-A induced inflammation GlyR3 knock out mouse model assessed as reduction in mechanical hyperalgesia. Type of assay: functional. More on the design: scale not given: the % may be the effect or the level left.
Assay [11] concerns the target T6, Glycine receptor subunit alpha-1 (Mus musculus, UniProt Q64018).
T6 sequence (Q64018 whole entry): T3 sequence (whole entry) with L9F, E362D, A365G, S396N, Q457K
Nature of the assay: Positive allosteric modulation of mouse GlyRalpha1 expressed in HEK293 cells assessed as potentiation of glycine-induced calcium flux by calcium dye-5 based FLIPR assay. It counts as cell-based. For orientation: Calcium flux is commonly read through the fluorescence of an indicator in the cells.

The target of assay [12] is T7, Glycine receptor subunit alpha-3 (Mus musculus, UniProt Q91XP5).
T7 sequence (Q91XP5 whole entry): T1 sequence (whole entry) with D32N, M372T, M398V, T399V, P406A
The experiment in a line: Positive allosteric modulation of mouse GlyRalpha3 expressed in HEK293 cells assessed as potentiation of glycine-induced calcium flux by calcium dye-5 based FLIPR assay. It counts as cell-based.

Assay [13] has as its target T3, Glycine receptor subunit alpha-1 (Homo sapiens). Nature of the assay: Positive allosteric modulation of human GlyRalpha1 expressed in HEK293 cells assessed as potentiation of glycine-induced calcium flux by calcium dye-5 based FLIPR assay relative to glycine. It counts as cell-based.
In assay [14] the target is Glycine receptor (alpha-1/beta) (Homo sapiens) (UniProt P23415+P48167). The experiment in a line: Positive allosteric modulation of human GlyRalpha1beta expressed in HEK293 cells assessed as potentiation of glycine-induced calcium flux by calcium dye-5 based FLIPR assay relative to glycine. Type of assay: cell-based.
For assay [15], the target named is T1, Glycine receptor subunit alpha-3 (Homo sapiens). The experiment in a line: Positive allosteric modulation of human GlyRalpha3 expressed in HEK293 cells assessed as potentiation of glycine-induced calcium flux by calcium dye-5 based FLIPR assay relative to glycine. Type of assay: cell-based.
In assay [16] the target is T4, Glycine receptor alpha-3/beta. Nature of the assay: Positive allosteric modulation of human GlyRalpha3beta expressed in HEK293 cells assessed as potentiation of glycine-induced calcium flux by calcium dye-5 based FLIPR assay relative to glycine. It counts as cell-based.
Assay [17] addresses T8, Glycine receptor subunit alpha-1 (Mus musculus) (UniProt Q64018).
T8 sequence (whole entry): T3 sequence (whole entry) with L9F, E362D, A365G, S396N, Q457K
Nature of the assay: Positive allosteric modulation of mouse GlyRalpha1 expressed in HEK293 cells assessed as potentiation of glycine-induced calcium flux by calcium dye-5 based FLIPR assay relative to glycine. It counts as cell-based.

In assay [18] the target is T5, Glycine receptor subunit alpha-3 (Mus musculus). Nature of the assay: Positive allosteric modulation of mouse GlyRalpha3 expressed in HEK293 cells assessed as potentiation of glycine-induced calcium flux by calcium dye-5 based FLIPR assay relative to glycine. Type of assay: cell-based.

Numbering of substitutions follows the chain as printed.

By EC50 is commonly meant the midpoint of the concentration-response curve. For `CC1=C[C@@H](/C=C(\C)CCCC2=CCN(CC(=O)O)C2=O)[C@]2(OC(=O)C(C)(O)C2=O)[C@@H]2[C@@H](C)CC[C@@H]12` (stereo partly drawn), the Activity in [1] came to 260%; in [3], 110%. For the same compound, the EC50 in [2] was found to be 8500 nM.

Regarding `CC(C)(C)c1cccc(C(C)(C)C)c1O`, the Activity turned out to be 134% in assay [4]; 116% in [5]; 309% in assay [6]; 54% in assay [7]; 23.5% in assay [8]; 44.3% in the assay listed under Mus musculus [9]. Besides, in the assay filed under Mus musculus [10], the Activity amounted to 16%.

Usually Emax stands for the size of the effect at its maximum, as opposed to the concentration needed. Take `CN1C(=O)[C@@H]2CN(S(=O)(=O)c3ccc4occc4c3)C[C@@H]2c2cnccc21`: the EC50 was found to be 268 nM in assay [11] and 490 nM in [12]. Also, the maximal effect (Emax) stood at 102% in [13]; 104% in [14]; 100% in assay [15]; 102% in assay [16]; 93.5% in assay [17]; 63.5% in [18].
